Measurements published in PMC9989926, “Zebrafish and medaka T1R (taste receptor type 1) proteins mediate highly sensitive recognition of L‐proline” (FEBS Open Bio, 2023).

Key:
zfT1R2b/zfT1R3 = target: T1, zfT1R2b/zfT1R3 (Danio rerio, UniProt A4PHQ8+Q2MHK9, Q2MHK9:Y247H); assay: FLIPR Calcium […] cell-based calcium assay, FlexStation […]
T1 construct: gene tas1r2.2; entire coding regions, stably co-expressed with chimeric G-protein G16gust44 in Flp-In 293 cells; heterodimer; T1R3 clone Y247H (C741T); with Taste receptor type 1 member 3
T1 sequence (A4PHQ8 18-823): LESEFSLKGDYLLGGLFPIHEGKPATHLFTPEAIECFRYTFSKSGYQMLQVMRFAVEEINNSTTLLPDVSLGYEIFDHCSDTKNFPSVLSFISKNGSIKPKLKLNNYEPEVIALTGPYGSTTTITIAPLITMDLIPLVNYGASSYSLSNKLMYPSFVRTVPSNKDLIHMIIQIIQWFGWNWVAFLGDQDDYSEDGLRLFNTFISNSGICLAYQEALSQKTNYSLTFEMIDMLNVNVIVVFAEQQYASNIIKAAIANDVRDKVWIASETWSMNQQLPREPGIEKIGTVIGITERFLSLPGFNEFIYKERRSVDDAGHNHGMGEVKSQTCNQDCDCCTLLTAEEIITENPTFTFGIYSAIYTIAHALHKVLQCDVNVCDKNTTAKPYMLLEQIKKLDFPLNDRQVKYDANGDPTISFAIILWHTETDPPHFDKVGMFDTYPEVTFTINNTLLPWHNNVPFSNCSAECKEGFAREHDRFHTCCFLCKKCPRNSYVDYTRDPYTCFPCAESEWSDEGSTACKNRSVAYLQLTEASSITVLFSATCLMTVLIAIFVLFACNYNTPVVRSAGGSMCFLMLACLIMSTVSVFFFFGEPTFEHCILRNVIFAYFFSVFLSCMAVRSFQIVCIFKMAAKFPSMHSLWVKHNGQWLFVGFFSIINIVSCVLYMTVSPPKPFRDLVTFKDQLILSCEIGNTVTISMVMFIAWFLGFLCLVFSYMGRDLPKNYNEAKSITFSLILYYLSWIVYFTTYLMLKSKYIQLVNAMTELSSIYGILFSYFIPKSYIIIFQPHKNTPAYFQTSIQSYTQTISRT
T1 sequence (Q2MHK9 25-850 Y247H): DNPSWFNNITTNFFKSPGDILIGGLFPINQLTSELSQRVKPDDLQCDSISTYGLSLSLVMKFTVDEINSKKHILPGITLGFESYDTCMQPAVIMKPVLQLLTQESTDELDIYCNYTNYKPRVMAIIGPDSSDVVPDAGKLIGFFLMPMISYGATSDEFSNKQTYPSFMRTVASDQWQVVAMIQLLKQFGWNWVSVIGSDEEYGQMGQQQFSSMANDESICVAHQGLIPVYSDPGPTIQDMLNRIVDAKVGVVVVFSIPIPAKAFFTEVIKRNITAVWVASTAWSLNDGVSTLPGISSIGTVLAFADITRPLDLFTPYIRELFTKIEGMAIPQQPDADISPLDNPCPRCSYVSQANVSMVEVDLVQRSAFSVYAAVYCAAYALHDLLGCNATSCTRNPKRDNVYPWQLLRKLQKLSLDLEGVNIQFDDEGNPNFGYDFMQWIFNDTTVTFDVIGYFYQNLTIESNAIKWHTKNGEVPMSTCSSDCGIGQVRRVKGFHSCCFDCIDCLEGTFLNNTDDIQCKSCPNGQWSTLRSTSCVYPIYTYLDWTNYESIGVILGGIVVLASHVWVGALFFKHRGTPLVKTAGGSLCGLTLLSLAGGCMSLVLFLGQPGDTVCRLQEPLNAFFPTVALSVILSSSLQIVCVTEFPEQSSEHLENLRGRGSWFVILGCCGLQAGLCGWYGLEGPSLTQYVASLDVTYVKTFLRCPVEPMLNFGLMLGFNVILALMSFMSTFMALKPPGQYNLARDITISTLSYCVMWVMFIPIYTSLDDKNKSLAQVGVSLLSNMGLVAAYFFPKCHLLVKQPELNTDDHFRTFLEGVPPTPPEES

mfT1R2b/mfT1R3 = target: T2, mfT1R2b/mfT1R3 (Oryzias latipes, UniProt Q2MHK2+Q2MHK4); assay: as above
T2 construct: gene TAS1R2b; entire coding regions, stably co-expressed with chimeric G-protein G16gust44 in Flp-In 293 cells; heterodimer; with Taste receptor type 1 member 3

zfT1R2a/zfT1R3 = target: T3, zfT1R2a/zfT1R3 (Danio rerio, UniProt Q2MHK9+Q2MHL1, Q2MHK9:Y247H); assay: as above
T3 construct: gene tas1r2.1; entire coding regions, stably co-expressed with chimeric G-protein G16gust44 in Flp-In 293 cells; heterodimer; T1R3 clone Y247H (C741T); with Taste receptor type 1 member 3
T3 sequence (Q2MHL1 26-825): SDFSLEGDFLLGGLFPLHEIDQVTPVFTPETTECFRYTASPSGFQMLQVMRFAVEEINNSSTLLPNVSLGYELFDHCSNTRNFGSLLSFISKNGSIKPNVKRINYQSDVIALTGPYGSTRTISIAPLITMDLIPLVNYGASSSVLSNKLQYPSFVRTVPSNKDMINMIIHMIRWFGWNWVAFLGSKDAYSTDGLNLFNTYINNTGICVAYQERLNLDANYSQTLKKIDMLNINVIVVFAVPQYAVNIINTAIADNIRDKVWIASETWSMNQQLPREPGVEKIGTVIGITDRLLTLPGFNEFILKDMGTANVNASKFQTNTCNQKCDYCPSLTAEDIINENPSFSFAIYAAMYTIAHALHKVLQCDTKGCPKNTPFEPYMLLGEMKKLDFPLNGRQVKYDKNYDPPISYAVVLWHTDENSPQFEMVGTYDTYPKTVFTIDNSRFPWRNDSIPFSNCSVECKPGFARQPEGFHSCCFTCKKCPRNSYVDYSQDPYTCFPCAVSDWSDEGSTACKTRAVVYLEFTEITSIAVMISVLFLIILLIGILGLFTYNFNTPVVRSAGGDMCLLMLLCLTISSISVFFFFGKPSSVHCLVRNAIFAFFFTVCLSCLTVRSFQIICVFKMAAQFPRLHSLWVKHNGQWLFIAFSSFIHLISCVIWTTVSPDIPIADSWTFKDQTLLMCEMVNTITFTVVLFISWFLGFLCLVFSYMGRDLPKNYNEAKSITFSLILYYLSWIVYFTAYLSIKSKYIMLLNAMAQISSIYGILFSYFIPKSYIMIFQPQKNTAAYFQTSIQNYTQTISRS
T3 sequence (Q2MHK9 25-850 Y247H): T1 sequence (Q2MHK9 25-850 Y247H)

mfT1R2c/mfT1R3 = target: T4, mfT1R2c/mfT1R3 (Oryzias latipes, UniProt Q2MHK2+Q2MHK3, Q2MHK3:V394L); assay: cell-based
T4 construct: gene TAS1R2c

mfT1R2a/mfT1R3 = target: T5, mfT1R2a/mfT1R3 (Oryzias latipes, UniProt Q2MHK2+Q2MHK5); assay: FLIPR Calcium […] cell-based calcium assay, FlexStation […]
T5 construct: gene TAS1R2a; entire coding regions, stably co-expressed with chimeric G-protein G16gust44 in Flp-In 293 cells; heterodimer; with Taste receptor type 1 member 3
T5 sequence (Q2MHK2 entry or part of it): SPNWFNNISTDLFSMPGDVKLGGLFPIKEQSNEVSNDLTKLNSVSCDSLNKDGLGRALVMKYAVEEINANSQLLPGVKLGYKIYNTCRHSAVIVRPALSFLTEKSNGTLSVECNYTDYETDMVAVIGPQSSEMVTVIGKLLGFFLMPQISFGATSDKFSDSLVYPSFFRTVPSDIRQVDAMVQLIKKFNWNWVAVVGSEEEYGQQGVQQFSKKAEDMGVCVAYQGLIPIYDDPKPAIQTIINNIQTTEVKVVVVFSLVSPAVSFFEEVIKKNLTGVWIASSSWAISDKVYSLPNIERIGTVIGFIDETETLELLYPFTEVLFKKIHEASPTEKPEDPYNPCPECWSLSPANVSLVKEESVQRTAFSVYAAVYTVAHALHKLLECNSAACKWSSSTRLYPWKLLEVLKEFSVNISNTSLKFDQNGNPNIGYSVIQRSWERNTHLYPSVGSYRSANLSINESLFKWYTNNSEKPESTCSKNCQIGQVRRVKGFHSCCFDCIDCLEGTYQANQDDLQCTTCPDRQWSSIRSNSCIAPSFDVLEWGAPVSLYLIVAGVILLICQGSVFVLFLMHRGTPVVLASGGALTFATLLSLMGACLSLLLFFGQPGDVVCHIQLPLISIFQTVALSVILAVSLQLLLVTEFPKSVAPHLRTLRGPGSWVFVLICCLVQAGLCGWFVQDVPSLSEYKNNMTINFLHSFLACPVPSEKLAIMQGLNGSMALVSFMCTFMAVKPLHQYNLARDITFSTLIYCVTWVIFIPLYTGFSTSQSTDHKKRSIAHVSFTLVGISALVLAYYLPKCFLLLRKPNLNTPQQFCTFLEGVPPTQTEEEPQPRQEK
T5 sequence (Q2MHK5 entry or part of it): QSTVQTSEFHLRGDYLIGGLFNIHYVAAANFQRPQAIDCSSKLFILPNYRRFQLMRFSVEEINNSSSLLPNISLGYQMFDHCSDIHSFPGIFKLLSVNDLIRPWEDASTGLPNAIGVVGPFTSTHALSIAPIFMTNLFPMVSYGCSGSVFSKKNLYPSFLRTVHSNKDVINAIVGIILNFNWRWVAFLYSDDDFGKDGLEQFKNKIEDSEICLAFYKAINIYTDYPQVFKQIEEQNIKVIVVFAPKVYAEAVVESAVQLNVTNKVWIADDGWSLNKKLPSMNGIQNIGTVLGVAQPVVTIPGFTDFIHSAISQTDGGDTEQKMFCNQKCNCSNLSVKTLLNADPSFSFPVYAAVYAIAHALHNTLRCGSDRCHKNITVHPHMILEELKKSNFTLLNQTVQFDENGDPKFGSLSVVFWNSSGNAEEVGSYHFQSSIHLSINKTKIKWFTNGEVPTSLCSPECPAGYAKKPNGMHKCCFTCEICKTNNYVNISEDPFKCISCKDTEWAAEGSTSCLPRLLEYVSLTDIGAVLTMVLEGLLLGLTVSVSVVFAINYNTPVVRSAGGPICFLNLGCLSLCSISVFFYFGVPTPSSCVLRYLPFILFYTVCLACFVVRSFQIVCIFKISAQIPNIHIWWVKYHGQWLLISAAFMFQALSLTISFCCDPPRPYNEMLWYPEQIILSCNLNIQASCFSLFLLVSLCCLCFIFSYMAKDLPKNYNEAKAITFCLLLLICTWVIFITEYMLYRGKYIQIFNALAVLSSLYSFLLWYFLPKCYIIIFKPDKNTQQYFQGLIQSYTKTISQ

T2 sequence (Q2MHK4 entry or part of it): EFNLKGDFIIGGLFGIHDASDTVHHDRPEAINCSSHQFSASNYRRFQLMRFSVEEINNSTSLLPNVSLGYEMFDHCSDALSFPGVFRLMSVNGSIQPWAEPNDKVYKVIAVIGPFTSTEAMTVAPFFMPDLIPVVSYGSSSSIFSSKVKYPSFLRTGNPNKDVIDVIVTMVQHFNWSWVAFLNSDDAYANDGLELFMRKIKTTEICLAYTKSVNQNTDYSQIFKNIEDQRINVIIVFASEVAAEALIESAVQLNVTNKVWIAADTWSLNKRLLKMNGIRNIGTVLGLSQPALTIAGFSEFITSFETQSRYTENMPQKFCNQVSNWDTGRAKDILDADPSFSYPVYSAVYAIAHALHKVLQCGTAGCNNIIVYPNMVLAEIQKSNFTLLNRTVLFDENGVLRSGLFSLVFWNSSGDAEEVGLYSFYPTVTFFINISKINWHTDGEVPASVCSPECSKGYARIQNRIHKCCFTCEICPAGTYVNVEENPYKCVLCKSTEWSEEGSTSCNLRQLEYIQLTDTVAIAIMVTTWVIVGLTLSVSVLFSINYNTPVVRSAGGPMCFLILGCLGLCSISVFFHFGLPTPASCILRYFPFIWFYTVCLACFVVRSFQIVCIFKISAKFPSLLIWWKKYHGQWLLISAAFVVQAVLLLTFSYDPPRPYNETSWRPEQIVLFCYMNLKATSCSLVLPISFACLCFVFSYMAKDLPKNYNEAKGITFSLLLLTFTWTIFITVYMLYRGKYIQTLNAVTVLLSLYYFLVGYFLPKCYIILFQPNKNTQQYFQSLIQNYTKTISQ
T2 sequence (Q2MHK2 entry or part of it): as the sequence (Q2MHK2 entry or part of it) above
T4 sequence (Q2MHK2 entry or part of it): as above
T4 sequence (Q2MHK3 entry or part of it V394L): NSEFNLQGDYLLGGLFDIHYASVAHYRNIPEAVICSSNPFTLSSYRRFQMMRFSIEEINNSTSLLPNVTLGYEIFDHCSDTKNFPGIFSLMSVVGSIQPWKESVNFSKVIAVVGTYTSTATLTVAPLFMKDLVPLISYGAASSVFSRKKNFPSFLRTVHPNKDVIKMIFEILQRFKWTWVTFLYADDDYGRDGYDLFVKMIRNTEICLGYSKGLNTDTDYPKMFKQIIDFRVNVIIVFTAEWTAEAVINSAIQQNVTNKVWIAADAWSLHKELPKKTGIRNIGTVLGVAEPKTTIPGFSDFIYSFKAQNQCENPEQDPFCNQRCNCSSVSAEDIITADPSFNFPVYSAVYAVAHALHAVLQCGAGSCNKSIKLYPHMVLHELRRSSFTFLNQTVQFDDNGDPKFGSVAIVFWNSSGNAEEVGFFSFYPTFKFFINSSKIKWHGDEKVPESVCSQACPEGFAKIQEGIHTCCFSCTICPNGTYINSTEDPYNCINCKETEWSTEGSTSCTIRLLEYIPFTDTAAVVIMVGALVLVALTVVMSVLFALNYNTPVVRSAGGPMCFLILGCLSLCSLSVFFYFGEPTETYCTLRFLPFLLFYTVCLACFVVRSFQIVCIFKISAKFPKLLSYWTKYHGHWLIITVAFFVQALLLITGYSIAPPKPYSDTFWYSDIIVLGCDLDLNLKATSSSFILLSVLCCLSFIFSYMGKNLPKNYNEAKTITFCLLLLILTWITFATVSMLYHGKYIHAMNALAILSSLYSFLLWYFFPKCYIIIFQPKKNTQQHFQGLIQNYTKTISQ

With O=C(O)[C@@H]1CCCN1 [L-proline] the EC50 (zfT1R2b/zfT1R3) was 1.72 ± 0.35 mM, the EC50 (mfT1R2b/mfT1R3) was 3.05 ± 0.22 mM and the EC50 (zfT1R2a/zfT1R3) was 164 ± 36 µM. It also gave an EC50 (mfT1R2c/mfT1R3) of 4.43 ± 0.38 µM.
For NC(=O)CC[C@H](N)C(=O)O [L-glutamine], the EC50 (mfT1R2a/mfT1R3) was 58.8 ± 7.6 µM.
Work on C[C@H](N)C(=O)O [L-alanine] yielded an EC50 (zfT1R2b/zfT1R3) of 2.03 ± 0.15 mM, an EC50 (mfT1R2a/mfT1R3) of 1230 ± 70 µM and an EC50 (mfT1R2b/mfT1R3) of 1.75 ± 0.14 mM. It also gave an EC50 (zfT1R2a/zfT1R3) of 220 ± 18 µM.
